Paper PMC9926234, “Iterative computational design and crystallographic screening identifies potent inhibitors targeting the Nsp3 macrodomain of SARS-CoV-2” (Proceedings of the National Academy of Sciences of the …, 2023)
Where “and” joins values, the source holds several entries; their conditions need not be identical. Equal entries are not always repeated. Where two headings read alike, the source gives them in different places.

Tests used:
[1] = target: T1, SARS-CoV-2 NSP3 Mac1 (Severe acute respiratory syndrome coronavirus 2, UniProt P0DTD1); parameters: contains a conserved macrodomain enzyme (Mac1); differential scanning fluorimetry, maximum thermal upshift; settings: binder
[2] = target: T1, SARS-CoV-2 NSP3 Mac1; experiment: biochemical; parameters: HTRF ADPr-peptide displacement assay with Mac1, dose-response IC50; settings: read-out: IC50 [µM] / 0.5, 1.2, 1.4
[3] = target: T1, SARS-CoV-2 NSP3 Mac1; parameters: contains a conserved macrodomain enzyme (Mac1); Differential scanning fluorimetry of Mac1, maximum thermal upshift; settings: maximum shift over tested concentrations; binder
[4] = target: T2, TARG1 (Homo sapiens, UniProt Q9Y530); experiment: adapted HTRF-based peptide displacement assay (off-target); assay type: binding; settings: versus TARG1, in words
T2 construct: Targ1_HTRF; HTRF assay; pET22b(+); His6, TEV; 1-153; made in house
T2 sequence (Q9Y530 with tags, fused parts or gaps): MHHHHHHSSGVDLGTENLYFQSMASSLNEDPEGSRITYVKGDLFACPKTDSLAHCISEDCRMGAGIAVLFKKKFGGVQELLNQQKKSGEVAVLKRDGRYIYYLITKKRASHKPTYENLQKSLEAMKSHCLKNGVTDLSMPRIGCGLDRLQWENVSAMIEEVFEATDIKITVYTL

[5] = target: T1, SARS-CoV-2 NSP3 Mac1; assay type: binding
[6] = target: T3, MacroD2 (Homo sapiens, UniProt A1Z1Q3); experiment: adapted HTRF-based peptide displacement assay (off-target); assay type: binding; settings: versus MacroD2, in words
T3 construct: MacroD2_HTRF; HTRF assay; pET22b(+); His6, TEV, Avi; made in house
T3 sequence (A1Z1Q3 with tags, fused parts or gaps): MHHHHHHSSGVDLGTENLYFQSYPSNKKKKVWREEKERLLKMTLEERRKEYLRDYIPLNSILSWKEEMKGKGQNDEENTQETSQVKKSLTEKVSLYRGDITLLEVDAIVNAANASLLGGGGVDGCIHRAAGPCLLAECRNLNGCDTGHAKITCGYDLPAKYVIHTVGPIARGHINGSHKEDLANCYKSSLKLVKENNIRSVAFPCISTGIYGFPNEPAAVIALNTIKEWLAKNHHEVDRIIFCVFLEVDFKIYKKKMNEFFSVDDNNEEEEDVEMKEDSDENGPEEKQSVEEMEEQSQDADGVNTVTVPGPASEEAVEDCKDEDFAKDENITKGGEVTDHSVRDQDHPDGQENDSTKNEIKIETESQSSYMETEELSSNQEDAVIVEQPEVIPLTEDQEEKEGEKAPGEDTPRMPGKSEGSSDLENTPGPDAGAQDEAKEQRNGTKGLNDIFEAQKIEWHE

[7] = system: SARS-CoV-2 NSP3 Mac1; experiment: Overall hit call (binding in crystallographic soaking or the HTRF-based binding assay)
Description: Supplement pnas.2212931120.sd01.xlsx, sheet "Compound Summary" | column: HIT*

[8] = target: T1, SARS-CoV-2 NSP3 Mac1; experiment: biochemical; assay type: binding
[9] = system: P-glycoprotein (human MDR1); experiment: in vitro; settings: dog, MDCK-MDR1, pH 7.4
Description: Permeability of compounds was assessed using canine MDR1 knockout and human MDR1 knockin MDCKII cells (MDR1-MDCKII) (Sigma-Aldrich, MTOX1303) in confluent monolayers expressing P-glycoprotein (P-gp) at Enamine biological services Bienta LTD (Kyiv, Ukraine).
Canine MDR1 knockout, human MDR1 knockin MDCKII cell (MDR1-MDCKII) (Sigma-Aldrich,
MTOX1303) suspension (400 μl) was added to each well of high throughput screening multiwell
insert system plates. Test compounds were prepared as 20 mM DMSO stocks. The test compound
(300 µl) was dissolved in transport buffer (9.5 g/l Hanks’ balanced salt solution and 0.35 g/l NaHCO3
wells whereas 1000 µl of transport buffer was added to transport analysis plate wells in order to
determine apical (A) to basolateral (B) transport. Basolateral to apical transport was measured by
adding 1000 µl of the test compound solution into the transport analysis plate wells whereas 300
µl of buffer was used to fill the filter plate wells.
were taken from the donor and receiver compartments for LC-MS/MS analysis. Samples were
mixed with acetonitrile followed by protein sedimentation by centrifugation at 1000 rpm for 10 min.
HPLC coupled with tandem mass spectroscopy was performed using the Shimadzu Prominence
HPLC system coupled with the API 5000 (PE Sciex) spectrometer. Both the positive and negative
ion modes of the TurboIonSpray ion source were used. The apparent permeability (Papp) was
computed using the equation 1, where VA is the volume of transport buffer in acceptor wel, Area is
the surface area of the insert, Time is the assay time, [drug]acc is the peak area of test compound
in acceptor well, and [drug]initial,d is the initial amount of the test compound in a donor well.

[10] = target: T1, SARS-CoV-2 NSP3 Mac1; parameters: method as in PMID 33853786; settings: cited from earlier work

O=C(NC1c2cccc(O)c2CC1C(=O)O)c1cnc2c(c1)CCCN2 (stereo not shown) [Z8539_0006, 8539_0006]
DSF max dTma [1]: 0 degC | IC50 [2]: 168 µM

O=C(NC1c2cccc(O)c2CC1C(=O)O)c1cnc(NC2CCOCC2)cn1 (stereo not shown) [Z8539_0007, 8539_0007]
DSF max dTma [3]: 3.42 °C | IC50 [2]: 6.4 µM

O=C(NC1c2cccc(O)c2CC1C(=O)O)c1ccc(NCC2CC2)nc1 (stereo not shown) [Z8539_0009, 8539_0009]
DSF max dTma [3]: 2.03 °C | IC50 [2]: 17.1 µM

O=C1COc2cc(C(=O)NC3c4cccc(O)c4CC3C(=O)O)ccc2N1 (stereo not shown) [Z8539_0014, 8539_0014]
DSF max dTma [3]: 1.83 °C | IC50 [2]: 27.9 µM

O=C(Nc1ccc(C(=O)NC2c3ccccc3CC2C(=O)O)cc1)NC1CC1 (stereo not shown) [Z8539_0029, 8539_0029]
DSF max dTma [3]: 3.66 °C | IC50 [2]: 4.8 µM

O=C(Nc1ccc(C(=O)N[C@H]2c3ccccc3CC[C@H]2C(=O)O)cc1)NC1CC1 [Z8539_0030, 8539_0030]
DSF max dTma [3]: 4.92 °C | IC50 [2]: 5.9 µM

O=C(NC1c2cccc(O)c2CC1C(=O)O)c1ccc2[nH]cnc2c1 (stereo not shown) [Z8539_2001]
selectivity for viral Mac1 over human macrodomain [4]: selective for viral Mac1 | 1-BDC ([5]; PanDDA event map background density correction, crystal soak, compound concentration 100 mM): 0.23 and 0.42 | 1-BDC (PanDDA) ([5]; PanDDA event map, 1 minus background density correction, crystal soaking of Mac1): 0.23 | 1-BDC ([5]; PanDDA event map, crystal soak, Compound_concentration 100 mM, Echo_dispense_volume 40 nl): 0.21 | PanDDA hit? ([5]; crystal soak, Compound_concentration 100 mM, Echo_dispense_volume 40 nl, PanDDA run (background map) dmso_34, nohits_35 or nohits_62): TRUE | Modeled? ([5]; ligand modeled in the crystal structure, crystal soak, compound concentration 100 mM): TRUE | Refined occupancy ([5]; ligand occupancy after refinement (phenix.refine), crystal soaking of Mac1): 46 | selectivity for viral Mac1 over human macrodomain [6]: selective for viral Mac1 | HIT* [7]: Y | binding to Mac1 in the HTRF assay, result in words [8]: did not affect the binding affinity | IC50 ([8]; HTRF ADPr-conjugated peptide displacement, read-out: IC50): 5.4 µM | Ki ([8]; read-out: Ki***): 4.7 µM | Papp A→B [9]: 1.1 ± 0.1 ×10⁻⁶ cm/s | Papp B→A [9]: 0.5 ×10⁻⁶ cm/s

Nc1ncnc(N2CCC(Oc3ccncc3)C2)c1Cl (stereo not shown) [Z9710, ZINC000302059710]
DSF max dTma [1]: 0 degC

Nc1ccc(C(=O)O)cc1 [ZINC920, 4-aminobenzoic acid]
binding to Mac1 in the fragment screen, result in words [10]: did not bind
